Data reported in US10350271B2, “Lipidated peptides for lowering blood glucose” (USTAV ORGANICKE CHEMIE A BIOCHEMIE AKADEMIE VED CR, V.V.I., priority 2014, dated 2019).
Square brackets hold non-standard residues; d marks the D form. Peptide text beside a SMILES is read from it. * marks the point of attachment. Phe(F5) = N[C@@H](Cc1c(F)c(F)c(F)c(F)c1F)C(=O)O; Palmitoyl = CCCCCCCCCCCCCCCC(=O)*; Lauroyl = CCCCCCCCCCCC(=O)*; Decanoyl = CCCCCCCCCC(=O)*; Nle = CCCC[C@H](N)C(=O)O; Octanoyl = CCCCCCCC(=O)*

Tests used:
[1] = molecular target: T1, human PrRP receptor GPR10 (Homo sapiens, UniProt P49683); test: Competitive binding in CHO cells transfected with human GPR10 (human 125I-PrRP31); details: for % of PrRP31, GPR10 human receptor transfected in CHO cells: affinity relative to PrRP31; for Ki: CHO cells, human 125I-PrRP31, read-out: Ki, GPR10 human receptor transfected in CHO cells; for Displacement of human 125I-PrRP binding: human GPR10 receptor
T1 construct: host or cells: CHO cells
T1 sequence (P49683 1-370): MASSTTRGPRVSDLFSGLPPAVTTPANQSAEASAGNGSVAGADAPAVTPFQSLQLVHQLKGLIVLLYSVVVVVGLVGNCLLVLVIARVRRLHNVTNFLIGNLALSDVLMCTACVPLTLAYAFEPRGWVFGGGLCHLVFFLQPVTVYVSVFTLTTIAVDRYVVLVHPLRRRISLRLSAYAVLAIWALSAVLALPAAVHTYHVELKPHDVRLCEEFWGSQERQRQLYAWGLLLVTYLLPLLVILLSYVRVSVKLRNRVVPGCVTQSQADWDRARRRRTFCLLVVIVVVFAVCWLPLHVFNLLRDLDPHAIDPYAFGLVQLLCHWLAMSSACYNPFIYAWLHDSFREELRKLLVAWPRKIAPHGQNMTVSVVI
Procedure, shortened: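 GPR10-transfected CHO cells (40-80 thousand/well) incubated 60 min at room temperature with 5×10^-11 mol·l^-1 human 125I-PrRP31 and unlabeled analog at 10^-11 to 10^-4 mol·l^-1 in Tris binding buffer pH 7.4. Cells solubilized in 0.1 mol/l NaOH, γ-counted; one-site nonlinear regression fit.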

rat PrRP receptor = molecular target: T2, rat PrRP receptor (Rattus norvegicus, UniProt Q64121); test: Competitive binding in RC-4B/C rat pituitary cells (125I-rat PrRP31); details: for % of PrRP31, RC-4B/C rat pituitary cells: affinity relative to PrRP31; for Ki: displacement of 125I-rat PrRP31, read-out: Ki, RC-4B/C rat pituitary cells ^25I-rat PrRP31; for Displacement of rat 125I-PrRP binding: rat PrRP receptor
T2 construct: host or cells: RC-4B/C rat pituitary cell line
T2 sequence (Q64121 1-370): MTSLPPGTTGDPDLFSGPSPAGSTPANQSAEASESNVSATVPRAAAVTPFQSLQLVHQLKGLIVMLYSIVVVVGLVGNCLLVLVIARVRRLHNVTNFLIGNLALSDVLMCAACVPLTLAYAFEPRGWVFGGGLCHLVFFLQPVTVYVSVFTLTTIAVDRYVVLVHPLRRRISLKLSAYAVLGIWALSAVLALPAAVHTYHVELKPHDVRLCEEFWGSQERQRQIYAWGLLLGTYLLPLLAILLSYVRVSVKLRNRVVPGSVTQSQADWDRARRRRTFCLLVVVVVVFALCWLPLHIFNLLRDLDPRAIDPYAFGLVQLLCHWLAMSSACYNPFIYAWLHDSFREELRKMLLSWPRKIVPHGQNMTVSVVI
Procedure, shortened: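 Intact rat pituitary RC-4B/C cells incubated 60 min at room temperature with […] rat 125I-PrRP31 and unlabeled analog (10^−11 to 10^−4 mol·l^−1) in HEPES pH 7.4 buffer. Cell-bound radioactivity γ-counted after NaOH lysis; one-site competition fit.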

C57BL/6 mice = test: Food intake in fasted mice after SC injection; type: in vivo; details: for Food intake in mice % of saline-treated group: 5 mg/kg SC, 45 min after injection
Procedure, shortened: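 Overnight-fasted animals (food removed 17 h before dosing, water available) in individual cages got saline, PrRP or lipidated PrRP analogs SC at 1-10 mg/kg.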

SMILES	% of PrRP31, GPR10 human receptor transfected in CHO cells [1] [%]	% of PrRP31, RC-4B/C rat pituitary cells (rat PrRP receptor) [%]	Binding affinity (rat PrRP receptor; RC-4B/C cells, statements referring to Table 2)	Ki [1] [nM]	Displacement of human 125I-PrRP binding [1]	Ki (rat PrRP receptor; RC-4B/C cells) [nM]	Displacement of rat 125I-PrRP binding (rat PrRP receptor; RC-4B/C cells)	Food intake in mice % of saline-treated group (C57BL/6 mice) [%]	Effect on food intake in mice (C57BL/6 mice; SC)
CCCCCCCCCCCCCCCC(=O)N[C@@H](CO)C(=O)N[C@@H](CCCNC(=N)N)C(=O)N[C@@H](C)C(=O)N[C@@H](Cc1c[nH]cn1)C(=O)N[C@@H](CCC(N)=O)C(=O)N[C@@H](Cc1c[nH]cn1)C(=O)N[C@@H](CO)C(=O)N[C@@H](CCCC)C(=O)N[C@@H](CCC(=O)O)C(=O)N[C@H](C(=O)N[C@@H](CCCNC(=N)N)C(=O)N[C@H](C(=O)N1CCC[C@H]1C(=O)N[C@@H](CC(=O)O)C(=O)N[C@H](C(=O)N[C@@H](CC(N)=O)C(=O)N1CCC[C@H]1C(=O)N[C@@H](C)C(=O)N[C@@H](Cc1c[nH]c2ccccc12)C(=O)N[C@@H](Cc1ccc(O)cc1)C(=O)N[C@H](C(=O)NCC(=O)N[C@@H](CCCNC(=N)N)C(=O)NCC(=O)N[C@H](C(=O)N[C@@H](CCCNC(=N)N)C(=O)N1CCC[C@H]1C(=O)N[C@H](C(=O)NCC(=O)N[C@@H](CCCNC(=N)N)C(=O)N[C@@H](Cc1c(F)c(F)c(F)c(F)c1F)C(N)=O)C(C)C)[C@@H](C)CC)[C@@H](C)O)[C@@H](C)CC)[C@@H](C)O)[C@@H](C)O [Analog 22] (Palmitoyl-SRAHQHS[Nle]ETRTPDINPAWYTGRGIRPVGR[Phe(F5)]-NH2)	203	966	–	–	–	–	–	41	–
CCCCCCCCCCCCCCCC(=O)N[C@@H](CO)C(=O)N[C@@H](CCCNC(=N)N)C(=O)N[C@@H](C)C(=O)N[C@@H](Cc1c[nH]cn1)C(=O)N[C@@H](CCC(N)=O)C(=O)N[C@@H](Cc1c[nH]cn1)C(=O)N[C@@H](CO)C(=O)N[C@@H](CCCC)C(=O)N[C@@H](CCC(=O)O)C(=O)N[C@H](C(=O)N[C@@H](CCCNC(=N)N)C(=O)N[C@H](C(=O)N1CCC[C@H]1C(=O)N[C@@H](CC(=O)O)C(=O)N[C@H](C(=O)N[C@@H](CC(N)=O)C(=O)N1CCC[C@H]1C(=O)N[C@@H](C)C(=O)N[C@@H](Cc1c[nH]c2ccccc12)C(=O)N[C@@H](Cc1ccc(O)cc1)C(=O)N[C@H](C(=O)NCC(=O)N[C@@H](CCCNC(=N)N)C(=O)NCC(=O)N[C@H](C(=O)N[C@@H](CCCNC(=N)N)C(=O)N1CCC[C@H]1C(=O)N[C@H](C(=O)NCC(=O)N[C@@H](CCCNC(=N)N)C(=O)N[C@@H](Cc1ccc(O)cc1)C(N)=O)C(C)C)[C@@H](C)CC)[C@@H](C)O)[C@@H](C)CC)[C@@H](C)O)[C@@H](C)O [Analog 24] (Palmitoyl-SRAHQHS[Nle]ETRTPDINPAWYTGRGIRPVGRY-NH2)	248	1120	–	–	–	–	–	22	–
CCCCCCCCCCCC(=O)N[C@H](C(=O)N1CCC[C@H]1C(=O)N[C@@H](CC(=O)O)C(=O)N[C@H](C(=O)N[C@@H](CC(N)=O)C(=O)N1CCC[C@H]1C(=O)N[C@@H](C)C(=O)N[C@@H](Cc1c[nH]c2ccccc12)C(=O)N[C@@H](Cc1ccc(O)cc1)C(=O)N[C@@H](C)C(=O)N[C@@H](CO)C(=O)N[C@@H](CCCNC(=N)N)C(=O)NCC(=O)N[C@H](C(=O)N[C@@H](CCCNC(=N)N)C(=O)N1CCC[C@H]1C(=O)N[C@H](C(=O)NCC(=O)N[C@@H](CCCNC(=N)N)C(=O)N[C@@H](Cc1ccccc1)C(N)=O)C(C)C)[C@@H](C)CC)[C@@H](C)CC)[C@@H](C)O [Analog 41] (Lauroyl-TPDINPAWYASRGIRPVGRF-NH2)	161	822	–	–	nmol·l^−1 range	0.6 ± 0.22	nmol·l^−1 range	85	–
CCCCCCCCCCCCCC(=O)N[C@@H](CO)C(=O)N[C@@H](CCCNC(=N)N)C(=O)N[C@H](C(=O)N[C@@H](Cc1c[nH]cn1)C(=O)N[C@@H](CCCNC(=N)N)C(=O)N[C@@H](Cc1c[nH]cn1)C(=O)N[C@@H](CO)C(=O)N[C@@H](CCSC)C(=O)N[C@@H](CCC(=O)O)C(=O)N[C@H](C(=O)N[C@@H](CCCNC(=N)N)C(=O)N[C@H](C(=O)N1CCC[C@H]1C(=O)N[C@@H](CC(=O)O)C(=O)N[C@H](C(=O)N[C@@H](CC(N)=O)C(=O)N1CCC[C@H]1C(=O)N[C@@H](C)C(=O)N[C@@H](Cc1c[nH]c2ccccc12)C(=O)N[C@@H](Cc1ccc(O)cc1)C(=O)N[C@@H](C)C(=O)N[C@@H](CO)C(=O)N[C@@H](CCCNC(=N)N)C(=O)NCC(=O)N[C@H](C(=O)N[C@@H](CCCNC(=N)N)C(=O)N1CCC[C@H]1C(=O)N[C@H](C(=O)NCC(=O)N[C@@H](CCCNC(=N)N)C(=O)N[C@@H](Cc1ccccc1)C(N)=O)C(C)C)[C@@H](C)CC)[C@@H](C)CC)[C@@H](C)O)[C@@H](C)CC)[C@@H](C)O [Analog 42]	83	1027	–	–	–	0.48 ± 0.18	–	10	–

Continued, in another order:

% of PrRP31, GPR10 human receptor transfected in CHO cells [1] [%]	% of PrRP31, RC-4B/C rat pituitary cells (rat PrRP receptor) [%]	Binding affinity (rat PrRP receptor; RC-4B/C cells, statements referring to Table 2)	Ki [1] [nM]	Displacement of human 125I-PrRP binding [1]	Ki (rat PrRP receptor; RC-4B/C cells) [nM]	Displacement of rat 125I-PrRP binding (rat PrRP receptor; RC-4B/C cells)	SMILES	Food intake in mice % of saline-treated group (C57BL/6 mice) [%]	Effect on food intake in mice (C57BL/6 mice; SC)
0.06	0.09	very low binding affinity	–	–	–	–	CC[C@H](C)[C@H](NC(=O)[C@H](CCCNC(=N)N)NC(=O)[C@@H]1CCCN1C(=O)[C@@H](NC(=O)CNC(=O)[C@@H](CCCNC(=N)N)NC(=O)[C@H](N)Cc1ccccc1)C(C)C)C(=O)NCC(=O)N[C@@H](CCCNC(=N)N)C(=O)NCC(=O)N[C@H](C(=O)N[C@@H](Cc1ccc(O)cc1)C(=O)N[C@@H](Cc1c[nH]c2ccccc12)C(=O)N[C@@H](C)C(=O)N1CCC[C@H]1C(=O)N[C@@H](CC(N)=O)C(=O)N[C@H](C(=O)N[C@@H](CC(=O)O)C(=O)N1CCC[C@H]1C(=O)N[C@H](C(N)=O)[C@@H](C)O)[C@@H](C)CC)[C@@H](C)O [Analog 25] (H-[dF][dR]GVPRIGRGTYWAPNIDPT-NH2)	–	no effect
201	530	–	1.94 ± 0.32	nmol·l^−1 range	0.93 ± 0.23	nmol·l^−1 range	CCCCCCCC(=O)N[C@H](C(=O)N1CCC[C@H]1C(=O)N[C@@H](CC(=O)O)C(=O)N[C@H](C(=O)N[C@@H](CC(N)=O)C(=O)N1CCC[C@H]1C(=O)N[C@@H](C)C(=O)N[C@@H](Cc1c[nH]c2ccccc12)C(=O)N[C@@H](Cc1ccc(O)cc1)C(=O)N[C@@H](C)C(=O)N[C@@H](CO)C(=O)N[C@@H](CCCNC(=N)N)C(=O)NCC(=O)N[C@H](C(=O)N[C@@H](CCCNC(=N)N)C(=O)N1CCC[C@H]1C(=O)N[C@H](C(=O)NCC(=O)N[C@@H](CCCNC(=N)N)C(=O)N[C@@H](Cc1ccccc1)C(N)=O)C(C)C)[C@@H](C)CC)[C@@H](C)CC)[C@@H](C)O [Analog 39] (Octanoyl-TPDINPAWYASRGIRPVGRF-NH2)	100	–
129	1202	–	3.02 ± 0.49	nmol·l^−1 range	0.41 ± 0.01	nmol·l^−1 range	CCCCCCCCCC(=O)N[C@H](C(=O)N1CCC[C@H]1C(=O)N[C@@H](CC(=O)O)C(=O)N[C@H](C(=O)N[C@@H](CC(N)=O)C(=O)N1CCC[C@H]1C(=O)N[C@@H](C)C(=O)N[C@@H](Cc1c[nH]c2ccccc12)C(=O)N[C@@H](Cc1ccc(O)cc1)C(=O)N[C@@H](C)C(=O)N[C@@H](CO)C(=O)N[C@@H](CCCNC(=N)N)C(=O)NCC(=O)N[C@H](C(=O)N[C@@H](CCCNC(=N)N)C(=O)N1CCC[C@H]1C(=O)N[C@H](C(=O)NCC(=O)N[C@@H](CCCNC(=N)N)C(=O)N[C@@H](Cc1ccccc1)C(N)=O)C(C)C)[C@@H](C)CC)[C@@H](C)CC)[C@@H](C)O [Analog 40] (Decanoyl-TPDINPAWYASRGIRPVGRF-NH2)	100	–
